Data as given in PubChem BioAssay (NCI).
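Cultured in 96-well plates, cells were exposed to test compound for 48 hours across five concentrations. GI50 is the concentration that inhibits growth by half. TGI denotes the concentration required for complete inhibition of growth.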

Key:
Assay in all cases: growth of human tumour cells (NCI), 48 h
ACHN renal = system: ACHN renal
RPMI-8226 leukemia = system: RPMI-8226 leukemia
HOP-62 NSCLC = system: HOP-62 NSCLC
KM12 colon = system: KM12 colon
A498 renal = system: A498 renal
K-562 leukemia = system: K-562 leukemia
786-0 renal = system: 786-0 renal
NCI-H460 lung = system: NCI-H460 lung
MOLT-4 leukemia = system: MOLT-4 leukemia
CCRF-CEM leukemia = system: CCRF-CEM leukemia

## Oc1c(Cl)cc(C(c2cc(Cl)c(O)c(Cl)c2)C(c2cc(Cl)c(O)c(Cl)c2)c2cc(Cl)c(O)c(Cl)c2)cc1Cl
ACHN renal
  GI50: 5.21 µM
  TGI: 20.3 µM
RPMI-8226 leukemia
  GI50: 3 µM
  TGI: 12.4 µM
HOP-62 NSCLC
  GI50: 6.28 µM
  TGI: 19.2 µM
KM12 colon
  GI50: 2.85 µM
  TGI: 11.8 µM
A498 renal
  GI50: 10.1 µM
  TGI: 26.3 µM
K-562 leukemia
  GI50: 13.1 µM
  TGI: 38 µM
786-0 renal
  GI50: 3.49 µM
  TGI: 16.7 µM
NCI-H460 lung
  GI50: 2.59 µM
  TGI: 18.7 µM

## O=C(O)c1ccc([N+](=O)[O-])c(P(=O)(O)O)c1
ACHN renal
  TGI: > 100 µM
RPMI-8226 leukemia
  TGI: > 100 µM
HOP-62 NSCLC
  TGI: > 100 µM
KM12 colon
  TGI: > 100 µM
A498 renal
  TGI: > 100 µM
K-562 leukemia
  TGI: > 100 µM
MOLT-4 leukemia
  TGI: > 100 µM
786-0 renal
  TGI: > 100 µM
NCI-H460 lung
  TGI: > 100 µM

## CCCCN(CCCC)c1cc(C(=O)CCCCCN)c2ccccc2n1
ACHN renal
  GI50: 1.76 µM
  TGI: 3.14 µM
RPMI-8226 leukemia
  GI50: 2.95 µM
  TGI: 6.53 µM
HOP-62 NSCLC
  GI50: 1.76 µM
  TGI: 3.53 µM
A498 renal
  GI50: 2.85 µM
  TGI: 19.2 µM
CCRF-CEM leukemia
  GI50: 3.2 µM
  TGI: 7.32 µM
K-562 leukemia
  GI50: 2.47 µM
  TGI: 5 µM
MOLT-4 leukemia
  GI50: 2.54 µM
  TGI: 5.47 µM
786-0 renal
  GI50: 1.83 µM
  TGI: 3.27 µM

## CCOC(=O)CC(=O)N(c1ccc(OC)cc1)C(C(=O)OC)c1ccccc1 (centres undefined)
ACHN renal
  TGI: > 100 µM
RPMI-8226 leukemia
  TGI: > 100 µM
HOP-62 NSCLC
  TGI: > 100 µM
KM12 colon
  TGI: > 100 µM
CCRF-CEM leukemia
  TGI: > 100 µM
K-562 leukemia
  TGI: > 100 µM
786-0 renal
  TGI: > 100 µM
NCI-H460 lung
  TGI: > 100 µM

## O=C(Nc1cccc(-n2cc(-c3ccncc3)c(-c3cc(O)cc(Cl)c3)n2)c1)Nc1ccc(Cl)c(Cl)c1
ACHN renal
  GI50: 2.21 µM
  TGI: 8.71 µM
RPMI-8226 leukemia
  GI50: 1.44 µM
  TGI: 4.3 µM
HOP-62 NSCLC
  GI50: 2.82 µM
  TGI: 8.51 µM
KM12 colon
  GI50: 1.5 µM
  TGI: 3.69 µM
A498 renal
  GI50: 2.09 µM
  TGI: 9.06 µM
K-562 leukemia
  GI50: 2.56 µM
  TGI: > 100 µM
MOLT-4 leukemia
  GI50: 1.43 µM
  TGI: 5.16 µM
786-0 renal
  GI50: 1.48 µM
  TGI: 3.71 µM
NCI-H460 lung
  GI50: 2.18 µM
  TGI: 6.14 µM

## CCOC(=O)/C(=C/c1cc(OC)ccc1OC)CC(=O)O
ACHN renal
  TGI: > 100 µM
RPMI-8226 leukemia
  TGI: > 31.6 µM
KM12 colon
  TGI: > 100 µM
A498 renal
  TGI: > 100 µM
CCRF-CEM leukemia
  TGI: > 31.6 µM
K-562 leukemia
  TGI: > 31.6 µM
MOLT-4 leukemia
  TGI: > 31.6 µM
786-0 renal
  TGI: > 31.6 µM
NCI-H460 lung
  TGI: > 100 µM

## C=CC[Se]C(=O)c1ccccc1OC(C)=O
ACHN renal
  GI50: 1.76 µM
  TGI: 3.21 µM
RPMI-8226 leukemia
  GI50: 2.22 µM
  TGI: 5.71 µM
KM12 colon
  GI50: 0.947 µM
  TGI: 2.52 µM
A498 renal
  GI50: 0.885 µM
  TGI: 5.62 µM
CCRF-CEM leukemia
  GI50: 2.42 µM
  TGI: 7.06 µM
K-562 leukemia
  GI50: 3.1 µM
  TGI: > 100 µM
MOLT-4 leukemia
  GI50: 2.9 µM
  TGI: 8.43 µM
786-0 renal
  GI50: 1.88 µM
  TGI: 3.49 µM
NCI-H460 lung
  GI50: 0.36 µM
  TGI: 1.84 µM

## O=S1Cc2ccccc2CS1 (centres undefined)
ACHN renal
  TGI: > 100 µM
RPMI-8226 leukemia
  TGI: 38.2 µM
KM12 colon
  TGI: > 100 µM
A498 renal
  TGI: > 100 µM
K-562 leukemia
  TGI: 49.9 µM
MOLT-4 leukemia
  TGI: 56 µM
786-0 renal
  TGI: 29.2 µM
NCI-H460 lung
  TGI: 64.6 µM

## CC(=O)NC(ON1C(=O)COc2ccccc21)C(Cl)(Cl)Cl (centres undefined)
ACHN renal
  TGI: > 100 µM
RPMI-8226 leukemia
  TGI: > 100 µM
HOP-62 NSCLC
  TGI: > 100 µM
KM12 colon
  TGI: > 100 µM
K-562 leukemia
  TGI: > 100 µM
MOLT-4 leukemia
  TGI: > 100 µM
786-0 renal
  TGI: > 100 µM
NCI-H460 lung
  TGI: > 100 µM

## Cc1ccc(NC(=O)C2C(=O)C(=O)N(c3ccc(C)cc3)C2=O)cc1 (centres undefined)
ACHN renal
  TGI: > 100 µM
HOP-62 NSCLC
  TGI: > 100 µM
KM12 colon
  TGI: > 100 µM
A498 renal
  TGI: > 100 µM
CCRF-CEM leukemia
  TGI: > 100 µM
K-562 leukemia
  TGI: > 100 µM
MOLT-4 leukemia
  TGI: > 100 µM
786-0 renal
  TGI: > 100 µM
NCI-H460 lung
  TGI: > 100 µM

## O=C(Nc1cccnc1)c1cccs1
ACHN renal
  GI50: 8.98 µM
  TGI: > 100 µM
HOP-62 NSCLC
  GI50: 42.2 µM
  TGI: > 100 µM
KM12 colon
  GI50: 0.941 µM
  TGI: > 100 µM
A498 renal
  GI50: > 100 µM
  TGI: > 100 µM
K-562 leukemia
  GI50: 0.728 µM
  TGI: > 100 µM
MOLT-4 leukemia
  GI50: 3.19 µM
  TGI: > 100 µM
786-0 renal
  GI50: 6.77 µM
  TGI: > 100 µM
NCI-H460 lung
  GI50: 6.6 µM
  TGI: > 100 µM

## C[C@H]1O[C@@H](O[C@H]2[C@@H](O)C[C@H](O[C@H]3[C@@H](O)C[C@H](O[C@H]4CC[C@]5(C)C6C[C@@H](O)[C@]7(C)[C@@H](C8=CC(=O)OC8)CC[C@]7(O)C6CC[C@@H]5C4)O[C@@H]3C)O[C@@H]2C)C[C@H](O)[C@@H]1O (some centres undefined)
ACHN renal
  GI50: 0.022 µM
  TGI: 0.115 µM
RPMI-8226 leukemia
  GI50: 0.117 µM
  TGI: 0.377 µM
HOP-62 NSCLC
  GI50: 0.038 µM
  TGI: 0.102 µM
KM12 colon
  GI50: 0.144 µM
  TGI: 0.544 µM
CCRF-CEM leukemia
  GI50: 0.0216 µM
  TGI: 0.153 µM
K-562 leukemia
  GI50: 0.117 µM
  TGI: 0.413 µM
MOLT-4 leukemia
  GI50: 0.0176 µM
  TGI: 0.147 µM
786-0 renal
  GI50: 0.06 µM
  TGI: 0.16 µM
NCI-H460 lung
  GI50: 0.0197 µM
  TGI: 0.0748 µM

## CC(=O)c1cc2c3c(c1)c1cc4c(cc1c(=O)n3CC2)OCO4
ACHN renal
  TGI: > 100 µM
RPMI-8226 leukemia
  TGI: > 100 µM
HOP-62 NSCLC
  TGI: > 100 µM
KM12 colon
  TGI: > 100 µM
CCRF-CEM leukemia
  TGI: > 100 µM
K-562 leukemia
  TGI: > 100 µM
MOLT-4 leukemia
  TGI: 9.92 µM
786-0 renal
  TGI: > 100 µM
NCI-H460 lung
  TGI: 49.7 µM

## Cc1cc(=O)[nH]c(CNC(=O)c2cccc3ccccc23)n1
ACHN renal
  TGI: > 100 µM
HOP-62 NSCLC
  TGI: > 100 µM
A498 renal
  TGI: > 100 µM
CCRF-CEM leukemia
  TGI: > 100 µM
K-562 leukemia
  TGI: > 100 µM
MOLT-4 leukemia
  TGI: > 100 µM
786-0 renal
  TGI: > 100 µM
NCI-H460 lung
  TGI: > 100 µM

## CCCCC(SC(=S)N(CC)CC)C(=O)Nc1nc(CC(=O)OCC)cs1 (centres undefined)
ACHN renal
  GI50: 67.3 µM
  TGI: > 100 µM
RPMI-8226 leukemia
  GI50: 22 µM
  TGI: 85.2 µM
HOP-62 NSCLC
  GI50: > 100 µM
  TGI: > 100 µM
KM12 colon
  GI50: 31.6 µM
  TGI: > 100 µM
A498 renal
  GI50: 54.3 µM
  TGI: > 100 µM
K-562 leukemia
  GI50: 25 µM
  TGI: > 100 µM
MOLT-4 leukemia
  GI50: 20.2 µM
  TGI: > 100 µM
786-0 renal
  GI50: > 100 µM
  TGI: > 100 µM

## COC(=O)C1C2CC3C(OC(=O)C31)C2I (centres undefined)
ACHN renal
  TGI: > 100 µM
RPMI-8226 leukemia
  TGI: > 100 µM
HOP-62 NSCLC
  TGI: > 100 µM
KM12 colon
  TGI: > 100 µM
A498 renal
  TGI: > 100 µM
K-562 leukemia
  TGI: > 100 µM
MOLT-4 leukemia
  TGI: > 100 µM
786-0 renal
  TGI: > 100 µM
NCI-H460 lung
  TGI: > 100 µM

## O=[n+]1cnn([O-])c2ccccc21
ACHN renal
  TGI: 36.9 µM
RPMI-8226 leukemia
  TGI: > 100 µM
HOP-62 NSCLC
  TGI: 49.9 µM
KM12 colon
  TGI: 40.4 µM
A498 renal
  TGI: > 100 µM
CCRF-CEM leukemia
  TGI: > 100 µM
K-562 leukemia
  TGI: > 100 µM
MOLT-4 leukemia
  TGI: > 100 µM
786-0 renal
  TGI: 42.1 µM
